Measured values: PubChem BioAssay AID180 (DTP/NCI, 2004)
Several values for one entry are separate records, joined by “and”; a condition that tells them apart may be missing. Equal entries are not always repeated.

System: BDF1 mice, Adenocarcinoma 755 s.c., tumor weight T/C
Assay: NCI In Vivo Anticancer Drug Screen. Data for tumor model Adenocarcinoma 755 (subcutaneous) in B6D2F1 (BDF1) mice
Conditions: endpoint: mean tumor weight, schedule: Q01DX011 (ip), higher = larger tumour
Description: The antitumor activity of compounds was measured in mice bearing transplantable tumors. Survival or tumor size were measured and the results are expressed as the measurement made in the treated group (T) divided by the measurement made in the vehicle treated control group (C). The tumor model used in this assay is Adenocarcinoma 755 (subcutaneous) in B6D2F1 (BDF1) mice

[1] = dose: 1.0 mg/kg/injection, vehicle: carboxymethylcellulose (CMC)
[2] = dose: 30.0 mg/kg/injection, vehicle: carboxymethylcellulose (CMC)
[3] = dose: 60.0 mg/kg/injection, vehicle: carboxymethylcellulose (CMC)
[4] = dose: 240.0 mg/kg/injection, vehicle: carboxymethylcellulose (CMC)
[5] = dose: 75.0 mg/kg/injection, vehicle: methylcellulose (MC)

CN(C)N=Nc1ccc(CCC(=O)NN)cc1
T/C (dose: 10.0 mg/kg/injection, vehicle: saline): 63 % of control | T/C (dose: 15.0 mg/kg/injection, vehicle: saline): 56 % of control | T/C (dose: 20.0 mg/kg/injection, vehicle: saline): 44 % of control | T/C (dose: 31.0 mg/kg/injection, vehicle: saline): 40 % of control

CN1CC(=O)NC1=O
T/C (dose: 250.0 mg/kg/injection, vehicle: saline): 105 % of control | T/C (dose: 500.0 mg/kg/injection, vehicle: saline): 93 % of control | T/C (dose: 1000.0 mg/kg/injection, vehicle: saline): 81 % of control

COc1cc(-c2ccc(N=Nc3ccc4c(S(=O)(=O)O)cc(S(=O)(=O)O)c(N)c4c3O)c(OC)c2)ccc1N=Nc1ccc2c(S(=O)(=O)O)cc(S(=O)(=O)O)c(N)c2c1O
T/C [1]: 74 % of control | T/C (dose: 2.0 mg/kg/injection, vehicle: carboxymethylcellulose (CMC)): 38 % of control | T/C (dose: 4.0 mg/kg/injection, vehicle: carboxymethylcellulose (CMC)): 44 % of control | T/C (dose: 8.0 mg/kg/injection, vehicle: carboxymethylcellulose (CMC)): 31 % of control and 43 % of control

Nc1nc(Br)c2ncn(C3OC(CO)C(O)C3O)c2n1 (stereo not given)
T/C [2]: 107 % of control | T/C [3]: 86 % of control | T/C (dose: 120.0 mg/kg/injection, vehicle: carboxymethylcellulose (CMC)): 106 % of control | T/C [4]: 103 % of control

CCOCCNS(=O)(=O)c1ncnc2nc[nH]c12
T/C (dose: 11.2 mg/kg/injection, vehicle: carboxymethylcellulose (CMC)): 53 % of control | T/C (dose: 22.5 mg/kg/injection, vehicle: carboxymethylcellulose (CMC)): 9 % of control | T/C [2]: 2 % of control | T/C (dose: 45.0 mg/kg/injection, vehicle: carboxymethylcellulose (CMC)): 3 % of control | T/C [3]: 1 % of control

CC(c1ccccc1)c1nc2c([nH]1)c(=O)n(C)c(=O)n2C (stereo not given)
T/C (dose: 40.0 mg/kg/injection, vehicle: methylcellulose (MC)): 99 % of control | T/C [5]: 86 % of control | T/C (dose: 150.0 mg/kg/injection, vehicle: methylcellulose (MC)): 72 % of control

O=C(OCC1OC(n2cnc3c(=O)[nH]c(=O)[nH]c32)C(OC(=O)c2ccccc2)C1OC(=O)c1ccccc1)c1ccccc1 (stereo not given)
T/C [2]: 105 % of control | T/C [3]: 78 % of control | T/C [4]: 59 % of control

CC(=O)OCC1OC(n2cnc3c(=S)nc(N)[nH]c32)C(OC(C)=O)C1OC(C)=O (stereo not given)
T/C (dose: 0.1 mg/kg/injection, vehicle: carboxymethylcellulose (CMC)): 86 % of control | T/C (dose: 0.2 mg/kg/injection, vehicle: carboxymethylcellulose (CMC)): 77 % of control | T/C (dose: 0.5 mg/kg/injection, vehicle: carboxymethylcellulose (CMC)): 69 % of control | T/C [1]: 11 % of control and 35 % of control | T/C (dose: 1.5 mg/kg/injection, vehicle: other): 26 % of control | T/C (dose: 3.0 mg/kg/injection, vehicle: other): 3 % of control

OCCNc1ncnc2c1ncn2C1OC(CO)C(O)C1O (stereo not given)
T/C (dose: 25.0 mg/kg/injection, vehicle: methylcellulose (MC)): 55 % of control | T/C (dose: 50.0 mg/kg/injection, vehicle: methylcellulose (MC)): 49 % of control | T/C [5]: 17 % of control | T/C (dose: 100.0 mg/kg/injection, vehicle: methylcellulose (MC)): 27 % of control | T/C (dose: 200.0 mg/kg/injection, vehicle: methylcellulose (MC)): 7 % of control

OCC1CCC(n2cnc3c(=S)nc[nH]c32)C1 (stereo not given)
T/C (dose: 50.0 mg/kg/injection, vehicle: carboxymethylcellulose (CMC)): 89 % of control | T/C (dose: 100.0 mg/kg/injection, vehicle: carboxymethylcellulose (CMC)): 88 % of control | T/C (dose: 200.0 mg/kg/injection, vehicle: carboxymethylcellulose (CMC)): 48 % of control
